Test results: paper PMC8662641, “Site-Specific Labeling of Endogenous Proteins Using CoLDR Chemistry” (Journal of the American Chemical Society, 2021)

Columns and labels:
BTK-1h = target: T1, BTK-1h (Homo sapiens, UniProt Q06187); assay: High-throughput screening with 1h-labeled BTK; assay type: binding
T1 construct: The BTK kinase domain was diluted to 2 μM in the buffer, and 2 μM 1h was added; made in house
Procedure: The collection was composed of BTK binding compounds obtained in our previous luminescence screen[37] (Data set S2). […] The resulting BTK-1h (50 μL) was added to the inhibitors.

BTK = BTK (Homo sapiens, UniProt Q06187); parameters: BTK kinase domain was expressed and purified as previously reported; made in house; method as in Reddi et al., J. Am. Chem. Soc. 2021, 143 (13), 4979–4992; conditions: ref Reddi et al., J. Am. Chem. Soc. 2021, 143 (13), 4979–4992; cited from earlier work
Chain of BTK (Q06187 402-655 limits assumed): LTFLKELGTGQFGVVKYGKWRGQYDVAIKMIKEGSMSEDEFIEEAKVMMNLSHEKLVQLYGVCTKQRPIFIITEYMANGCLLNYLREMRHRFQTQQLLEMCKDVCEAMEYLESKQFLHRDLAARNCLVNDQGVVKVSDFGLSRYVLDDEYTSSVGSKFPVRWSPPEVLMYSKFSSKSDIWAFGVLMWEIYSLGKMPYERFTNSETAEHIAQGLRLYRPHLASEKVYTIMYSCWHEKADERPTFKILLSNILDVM

[1] = Dataset S2A, 200 μM compound, BTK-1h, 32 °C, 10 min
[2] = Dataset S2B, 200 μM inhibitor added to BTK-1h (2 μm)

T1 sequence (Q06187 402-655): as the sequence (Q06187 402-655 limits assumed) above

SMILES	FI (650)/FI (620) (BTK-1h; [1])	FI (BTK-1h)/FI (BTK-1h+Inhibitor) at 620 nm (BTK-1h; [1])	BTK Inhibition reported in luminescence assay* (BTK)	FI (BTK-1h)/FI (BTK-1h+Inhibitor) at 620 nm (BTK-1h; [2])	FI (650)/FI (620) (BTK-1h; Dataset S2C, BTK-1h with inhibitor)
COc1c(-c2ccc3cc(NS(C)(=O)=O)ccc3c2)cc(-n2ccc(=O)[nH]c2=O)cc1C(C)(C)C [PCM-0216081-001]	0.9511	1.031	73.4		
CC(=O)O/N=C1/C(c2c(O)[nH]c3cc(Br)ccc23)=Nc2ccccc21 [PCM-0215536-001]	1.013	1.019	60.7		
CCCCCCCCCCCCc1ccc(S(=O)(=O)Nc2nncs2)cc1 [PCM-0095111-002]	1.107	1.042	53.8		
O=C(O)CSc1cc(NS(=O)(=O)c2ccc(Br)cc2)c2ccccc2c1O [PCM-0215378-001]	1.912	0.9002	51.7		
Cc1cnc(C(=O)N[C@H]2CCCCC/C=C\[C@@H]3C[C@@]3(C(=O)NS(=O)(=O)C3CC3)NC(=O)[C@@H]3C[C@@H](Oc4nc5ccccc5c5ccccc45)CN3C2=O)cn1 [PCM-0216057-001]	0.9612	1.053	53.3		
CN(c1ncccc1CNc1nc(Nc2ccc3c(c2)CC(=O)N3)ncc1C(F)(F)F)S(C)(=O)=O.O=S(=O)(O)c1ccccc1 [PCM-0095340-005]	1.135	1.028	84.8		
CNC(=O)c1cc(Oc2ccc(NC(=O)Nc3cc(C(C)(C)C)nn3-c3ccc4ncccc4c3)c(F)c2)ccn1 [PCM-0095514-002]	1.156	1.374	98.6		
CCc1cccc(CC)c1NC(=O)N1Cc2[nH]nc(NC(=O)c3ccc(N4CCN(C)CC4)cc3)c2C1 [PCM-0095127-002]	1.117	1.096	65.5		
Cl.O=C(c1ccc(OCCN2CCCCC2)cc1)c1c(-c2ccc(O)cc2)sc2cc(O)ccc12 [PCM-0065394-003]	1.378	1.018	85.5		
O=[N+]([O-])c1ccc(Sc2cccc[n+]2[O-])c2nonc12 [PCM-0215705-001, NSC228155]	7.1	1.02	73.4	7.1	
C=CC(=O)Nc1cccc(Nc2nc(Nc3ccc(OCCOC)cc3)ncc2F)c1 [PCM-0095787-002]	1.569	1.288	90.3		
COc1cc(NC(=O)c2ccc(-c3ccc(Cl)cc3)o2)cc(OC)c1 [PCM-0095366-002]	1.0001	1.041	56.8		
Cc1cc(C(=O)Nc2nc3cccc(Cl)c3n2[C@@H]2CCCCN(C(=O)/C=C/CN(C)C)C2)ccn1 [PCM-0215804-001]	1.045	1.069	73.8		
C=CC(=O)Nc1cccc(Oc2nc(Nc3ccc(N4CCN(C)CC4)cc3OC)ncc2Cl)c1 [PCM-0095043-002]	0.9704	1.038	89		
O=C(O)c1ccc(C=C2SC(=S)N(c3cccc(C(F)(F)F)c3)C2=O)cc1 [PCM-0095759-002]	1.083	1.262	54.1		
Cl.Cl.Cl.O[C@@H](COc1cccc2ncccc12)CN1CCN(C2c3ccccc3[C@@H]3[C@H](c4ccccc42)C3(F)F)CC1 (some centres unmarked) [PCM-0095161-003]	0.9335	1.115	102.7		
COc1cc2c(Nc3ccc(NC(=O)c4ccccc4)cc3)ncnc2cc1OCCCN1CCOCC1 [PCM-0094881-002]	1.089	1.079	77.9		
O=c1cc(-c2ccc(O)cc2)oc2cc(O)cc(O)c12 [PCM-0064643-001]	0.8396	1.036	63.8		
Nc1cccc(-c2cc3c(Oc4cccc(O)c4)ncnc3[nH]2)c1 [PCM-0095147-003]	1.616	1.107	82.1		

SMILES	FI (650)/FI (620) (BTK-1h; [1])	FI (BTK-1h)/FI (BTK-1h+Inhibitor) at 620 nm (BTK-1h; [1])	BTK Inhibition reported in luminescence assay* (BTK)	FI (BTK-1h)/FI (BTK-1h+Inhibitor) at 620 nm (BTK-1h; [2])	FI (650)/FI (620) (BTK-1h; Dataset S2C, BTK-1h with inhibitor)
O=c1cc(-c2ccc(O)cc2)oc2cc(O)c(O)c(O)c12 [PCM-0216408-001, Scutellarein]	4.394	1.081	70.3	4.394	
Cl[Te]1(Cl)(Cl)OCCO1.N [PCM-0215721-001]	1.1548	1.038	98.6		
Cn1cc(-c2cc(Oc3cc(F)c(NC(=O)C4(C(=O)Nc5ccccc5)CC4)cc3F)ccn2)cn1 [PCM-0216116-001]	1.3565	1.092	88.8		
COc1cccc(-n2c(=O)[nH]c3cc(Cl)n(-c4ccc(-c5cccc(OC)c5O)cc4)c3c2=O)c1 [PCM-0215555-001]	1.019	1.0396	99.3		
CCOC(=O)c1ccc(N2NC(=O)/C(=C/c3ccc([N+](=O)[O-])o3)C2=O)cc1 [PCM-0095807-002]	2.739	1.077	64.9		
O=C(O)c1cc(O)c2c(c1)[C@@H]([C@H]1c3cc(C(=O)O)cc(O)c3C(=O)c3c(O[C@@H]4O[C@H](CO)[C@@H](O)[C@H](O)[C@H]4O)cccc31)c1cccc(O[C@@H]3O[C@H](CO)[C@@H](O)[C@H](O)[C@H]3O)c1C2=O [PCM-0086913-003, Sennoside B]		1.82	84.1		1.82
C=CC(=O)N1CCN(C(=O)CNc2cc(I)c(Cl)cc2O)CC1 [PCM-0215367-001]	1.111	1.004	84.9		
C=CC(=O)Nc1ccc(CN2C(=O)N(c3cc(OC)cc(OC)c3)Cc3cnc(Nc4ccc(N5CCN(C)CC5)cc4)nc32)cc1 [PCM-0215559-001]	1.072	1.041	88.3		
CCS(=O)(=O)N1CCN(c2ccc(Nc3ncc(C(N)=O)c(NC4CC4)n3)cc2)CC1.Cl [PCM-0215389-001]	1.233	1.12	85.5		
Cc1c(C(=O)Nc2ccc(Oc3ccnc4[nH]cc(-c5ccccc5)c34)c(F)c2)c(=O)n(-c2ccc(F)cc2)n1C [PCM-0215493-001]	1.1367	1.0338	95.9		
CC(C)(C)c1cc(/C=C(\C#N)C(N)=S)cc(C(C)(C)C)c1O [PCM-0064936-001]	0.9335	1.037	82.8		
COS(=O)(=O)[O-].C[n+]1c2ccccc2nc2ccccc21 [PCM-0216061-001]	1.059	1.045	64.9		
C=CC(=O)Nc1cccc(Nc2nc(Nc3ccc(NC4CN(CCF)C4)cc3OC)ncc2C(F)(F)F)c1 [PCM-0215208-001]	1.1509	1.028	91		
C[C@@H]1O[C@@H](O[C@H]2[C@H](O[C@H]3CC[C@@]4(C)[C@@H](CC[C@]5(C)[C@@H]4CC=C4[C@@H]6CC(C)(C)CC[C@]6(C(=O)O)CC[C@]45C)[C@]3(C)CO)OC[C@H](O[C@@H]3O[C@H](CO)[C@@H](O)[C@H](O)[C@H]3O)[C@@H]2O)[C@H](O)[C@H](O)[C@H]1O [PCM-0216539-001]	0.7503	1.048	52.5		
C#CC[C@H](c1nc2cc(Cl)ccc2c(=O)n1Nc1ccccc1)N(CCCN)C(=O)c1cccc(Cl)c1F [PCM-0095802-002]	1.024	1.031	52.5		
O=C(Nc1ccc(OC(F)(F)F)cc1)c1sccc1NCc1ccnc2ccccc12 [PCM-0094951-002]	1.167	1.045	90.3		
CO[C@@H](C(=O)N1Cc2[nH]nc(NC(=O)c3ccc(N4CCN(C)CC4)cc3)c2C1)c1ccccc1 [PCM-0094888-003]	1.661	1.3808	85.5		
Cc1cc(N=Nc2ccc(S(=O)(=O)Nc3ccccn3)cc2)c(N)cc1O [PCM-0215414-001]	1.18	1.008	76.4		
CN1c2ccccc2C(=O)Nc2cnc(Nc3ccc(N4CCC(O)CC4)cc3)nc21 [PCM-0215745-001]	1.794	1.194	93.8		
